41 compounds from patent US9284283B2, “Macrocyclic compounds for modulating IL-17” (ENSEMBLE THERAPEUTICS CORPORATION, priority 2012, dated 2016) can be followed below.

This assay deals with T1, recombinant human IL17a (binding to its receptor IL17R) (Homo sapiens, UniProt Q16552).
T1 construct: purchased R&D Systems 317-ILB (IL17a); 177-IR (IL17R/Fc)
T1 sequence (Q16552 20-155 limits assumed): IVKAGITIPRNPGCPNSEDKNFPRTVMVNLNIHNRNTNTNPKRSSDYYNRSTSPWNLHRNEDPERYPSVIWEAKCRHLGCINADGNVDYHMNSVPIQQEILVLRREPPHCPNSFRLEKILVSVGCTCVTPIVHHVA
Nature of the assay: IL-17 competition ELISA I (IL17a coated, IL17R/Fc binding). The protocol:
ELISA I: The ability of the compounds to block binding of IL17a to its receptor, IL17R, was analyzed in a competition ELISA format. High binding 96-well plates (Costar #9018) were coated with 20 nM of recombinant human IL17a (R&D Systems #317-ILB) in PBS (0.64 μg/mL), 100 μL/well, for 30 min at 37′C followed by 5 min at 4′C. Plates were then washed in PBST (PBS/0.05% Tween-20) on a plate washer, (Biotech EL-450) blocked with protein-free blocking buffer (Thermo Scientific #37573) in 250 μL/well for 30 min on shaker at room temperature, and then washed again. Compound dilutions prepared in PBST were added into the wells in duplicates followed by the addition of IL17R/Fc (R&D Systems #177-IR) at a final concentration of 12 nM. Plates were then incubated for 30 min at room temperature on the shaker. Wells with no compound served as a positive “no competitor” control, while wells with no IL17R/Fc and no compound served as a blank negative control. After an additional PBST wash, 50 ng/mL HRP-conjugated goat anti-human Fc IgG (KPL #04-10-20) was added to the plate for 30 min at room temperature, followed by PBST wash and addition of SureBlue™ TMB (KPL #52-00-03). After the sufficient color development, the reaction was fixed by the addition of 100 μL/well 0.5 N HCl and absorbance was measured at 450 nm on Biotek plate reader.
Data were processed using BioAssay Enterprise v10.1.4 (CambridgeSoft) software. Linear OD λ450 were plotted against log concentration (x) and fitted to a 4-parameter logistic equation. IC50 was calculated using positive ‘no competitor’ control data as an upper limit and blank control as a lower limit in each assay.
A general note: In an ELISA, binding on a coated surface is turned into a signal by an enzyme label.
On to `O=C1CNC(=O)[C@@H](Cc2ccc(NC(=O)[C@H](Cc3ccccc3Cl)NC(=O)Cc3cccc(O)c3)cc2)NC(=O)CC2(CCCC2)CC(=O)NCCCCCN1` [Compound 217], for which the IC50 is < 100 nM. `O=C1CNC(=O)[C@@H](Cc2ccc(NC(=O)[C@H](Cc3ccccc3Cl)NC(=O)c3ccc(CO)cc3)cc2)NC(=O)CC2(CCCC2)CC(=O)NCCCCCN1` [Compound 219]: the IC50 fell in the range of 100 to 1000 nM. For the compound `O=C1CNC(=O)[C@@H](Cc2ccc(NC(=O)[C@H](Cc3ccccc3Cl)NC(=O)C3CCOCC3)cc2)NC(=O)CC2(CCCC2)CC(=O)NCCCCCN1` [Compound 220], the IC50 was in the range of 100 to 1000 nM. For `O=C1CNC(=O)[C@@H](Cc2ccc(NC(=O)[C@H](Cc3ccsc3)NC(=O)Cc3ccccc3)cc2)NC(=O)CC2(CCCC2)CC(=O)NCCCCCN1` [Compound 229], the IC50 is < 100 nM. `COCC(=O)N[C@@H](Cc1ccccc1Cl)C(=O)Nc1ccc(C[C@H]2NC(=O)CC3(CCCC3)CC(=O)NCCCCCNC(=O)CNC2=O)cc1` [Compound 234]: the 50% inhibitory concentration (IC50) was 100 to 1000 nM.

In the case of `O=C1CNC(=O)[C@@H](Cc2ccc(NC(=O)[C@H](Cc3ccccc3Cl)NC(=O)c3ncco3)cc2)NC(=O)CC2(CCCC2)CC(=O)NCCCCCN1` [Compound 235], the IC50 was in the range of 100 to 1000 nM. Turning to `O=C1CNC(=O)[C@@H](Cc2ccc(NC(=O)[C@H](Cc3ccccc3)NC(=O)Cc3ccccc3)cc2)NC(=O)CC2(CCCC2)CC(=O)NCCCCCN1` [Compound 237], the IC50 was < 100 nM. `CN(C(=O)Cc1ccccc1)[C@@H](Cc1ccccc1)C(=O)Nc1ccc(C[C@H]2NC(=O)CC3(CCCC3)CC(=O)NCCCCCNC(=O)CNC2=O)cc1` [Compound 238]: the IC50 is 1000 to 10000 nM. In the case of `O=C1CNC(=O)C(Cc2ccc(NC(=O)C(Cc3cccc(Cl)c3)NC(=O)Cc3ccccc3)cc2)NC(=O)CC2(CCCC2)CC(=O)NCCCCCN1` (centres unmarked) [Compound 239], the concentration for half-maximal inhibition (IC50) is < 100 nM. As to `O=C1CNC(=O)[C@@H](Cc2ccc(NC(=O)[C@H](Cc3ccc(Cl)cc3)NC(=O)Cc3ccccc3)cc2)NC(=O)CC2(CCCC2)CC(=O)NCCCCCN1` [Compound 240], the IC50 was < 100 nM.

For `O=C1CNC(=O)[C@@H](Cc2ccc(NC(=O)[C@H](Cc3ccc(Cl)c(Cl)c3)NC(=O)Cc3ccccc3)cc2)NC(=O)CC2(CCCC2)CC(=O)NCCCCCN1` [Compound 241], the IC50 fell in the range of 100 to 1000 nM. With `CC1(C)CC(=O)NCCCCCNC(=O)CNC(=O)[C@@H](Cc2ccc(NC(=O)[C@H](CC3CC3)NC(=O)Cc3ccccc3)cc2)NC(=O)C1` [Compound 245], the concentration for half-maximal inhibition (IC50) was in the range of 1000 to 10000 nM.

With `CC1(C)CC(=O)NCCCCCNC(=O)CNC(=O)[C@@H](Cc2ccc(NC(=O)[C@H](CC3CCC3)NC(=O)Cc3ccccc3)cc2)NC(=O)C1` [Compound 247], the IC50 was 100 to 1000 nM. On to `COC(=O)[C@@H]1CCCCNC(=O)CNC(=O)[C@@H](Cc2ccc(NC(=O)[C@H](Cc3ccccc3Cl)NC(C)=O)cc2)NC(=O)CC2(CCCC2)CC(=O)N1` [Compound 248], for which the IC50 was < 100 nM. Turning to `COC(=O)[C@@H]1CCCCNC(=O)CNC(=O)[C@@H](Cc2ccc(NC(=O)[C@H](Cc3ccccc3Cl)NC(=O)Cc3ccc(O)cc3)cc2)NC(=O)CC2(CCCC2)CC(=O)N1` [Compound 249], the IC50 was < 100 nM. Regarding `COC(=O)[C@@H]1CCCCNC(=O)CNC(=O)[C@@H](Cc2ccc(NC(=O)[C@H](Cc3ccccc3Cl)NC(=O)c3cccnc3)cc2)NC(=O)CC2(CCCC2)CC(=O)N1` [Compound 250], the IC50 is < 100 nM. For the compound `CC(=O)N[C@H](C(=O)Nc1ccc(C[C@H]2NC(=O)CC(C)(C)CC(=O)NCCCCCNC(=O)CNC2=O)cc1)C1CCCCC1` [Compound 252], the IC50 fell in the range of 1000 to 10000 nM.

With `CC1(C)CC(=O)NCCCCCNC(=O)CNC(=O)[C@@H](Cc2ccc(NC(=O)[C@H](Cc3cccs3)NC(=O)Cc3ccccc3)cc2)NC(=O)C1` [Compound 255], the IC50 fell in the range of 1000 to 10000 nM. As to `CC(=O)N[C@@H](Cc1cccs1)C(=O)Nc1ccc(C[C@H]2NC(=O)CC(C)(C)CC(=O)NCCCCCNC(=O)CNC2=O)cc1` [Compound 256], the half-inhibitory concentration (IC50) is > 10000 nM.

Take `CC1(C)CC(=O)NCCCCCNC(=O)CNC(=O)[C@@H](Cc2ccc(NC(=O)[C@H](Cc3cccs3)NC(=O)Cc3ccc(O)cc3)cc2)NC(=O)C1` [Compound 257]: the IC50 is 100 to 1000 nM.

On to `CC1(C)CC(=O)NCCCCCNC(=O)CNC(=O)[C@@H](Cc2ccc(NC(=O)[C@H](Cc3cccs3)NC(=O)c3cccnc3)cc2)NC(=O)C1` [Compound 258], for which the IC50 was 1000 to 10000 nM. `O=C1CC2(CCCC2)CC(=O)N[C@H](Cc2ccc(NC(=O)[C@H](Cc3ccccc3Cl)NC(=O)Cc3ccc(O)cc3)cc2)C(=O)N[C@H](Cc2ccccc2)C(=O)NCCCCCN1` [Compound 262]: the IC50 was < 100 nM. Regarding `O=C1CNC(=O)[C@@H](Cc2ccc(NC(=O)[C@H](Cc3ccccc3Cl)NC(=O)Cc3ccc(O)cc3)cc2)NC(=O)CC2(CCCC2)CC(=O)N[C@H](C(=O)O)CCCCN1` [Compound 265], the IC50 was < 100 nM.

On to `O=C1CNC(=O)[C@@H](Cc2ccc(NC(=O)[C@H](Cc3ccccc3Cl)NS(=O)(=O)c3ccccc3)cc2)NC(=O)CC2(CCCC2)CC(=O)NCCCCCN1` [Compound 271], for which the IC50 was 1000 to 10000 nM. Turning to `O=C1CNC(=O)[C@@H](Cc2ccc(NC(=O)[C@H](Cc3ccccc3Cl)NS(=O)(=O)Cc3ccccc3)cc2)NC(=O)CC2(CCCC2)CC(=O)NCCCCCN1` [Compound 272], the IC50 lay in the range of 100 to 1000 nM. Then `O=C1CNC(=O)[C@@H](Cc2ccc(NC(=O)[C@H](Cc3ccccc3Cl)NC(=O)CC3CCOCC3)cc2)NC(=O)CC2(CCCC2)CC(=O)NCCCCCN1` [Compound 275], with 100 to 1000 nM.

Consider `O=C1CNC(=O)[C@@H](Cc2ccc(NC(=O)[C@H](Cc3ccccc3Cl)NC(=O)c3ccc(O)c(F)c3)cc2)NC(=O)CC2(CCCC2)CC(=O)NCCCCCN1` [Compound 277], for which the IC50 lay in the range of 100 to 1000 nM. Then `O=C1CNC(=O)[C@@H](Cc2ccc(NC(=O)[C@H](Cc3ccccc3Cl)NC(=O)c3ccc(F)cc3O)cc2)NC(=O)CC2(CCCC2)CC(=O)NCCCCCN1` [Compound 278], with 1000 to 10000 nM; and `O=C1CNC(=O)[C@@H](Cc2ccc(NC(=O)[C@H](Cc3ccccc3Cl)NC(=O)Cc3ccc(O)cc3)cc2)NC(=O)CC2(CCCC2)CC(=O)NCCCCCN1` [Compound 279], with < 100 nM; and `CN1CCCCCNC(=O)CC2(CCCC2)CC(=O)N[C@H](Cc2ccc(NC(=O)[C@H](Cc3ccccc3Cl)NC(=O)Cc3ccccc3)cc2)C(=O)NCC1=O` [Compound 281], with < 100 nM. For the compound `COC(=O)[C@@H]1CCCCNC(=O)CNC(=O)[C@@H](Cc2ccc(NC(=O)[C@@H](NC(=O)Cc3ccccc3)C3CCCCC3)cc2)NC(=O)CC2(CCCC2)CC(=O)N1` [Compound 282], the IC50 was < 100 nM.

Regarding `C=CCOC(=O)N1CCNC(=O)CNC(=O)[C@@H](Cc2ccc(NC(=O)[C@H](Cc3ccccc3Cl)NC(=O)Cc3ccccc3)cc2)NC(=O)CC2(CCCC2)CC(=O)NCC1` [Compound 284], the IC50 fell in the range of 100 to 1000 nM.

Consider `COC(=O)[C@@H]1CCCCNC(=O)CC2(CCCC2)CC(=O)N[C@H](Cc2ccc(NC(=O)[C@H](Cc3ccccc3Cl)NC(=O)Cc3ccccc3)cc2)C(=O)NCC(=O)N1` [Compound 285], for which the IC50 is < 100 nM.

As for `O=C1CCCCCNC(=O)CNC(=O)[C@@H](Cc2ccc(NC(=O)[C@H](Cc3ccccc3Cl)NC(=O)Cc3ccccc3)cc2)NC(=O)CC2(CCCCC2)CN1` [Compound 286], the IC50 was 100 to 1000 nM. With `C[C@@H]1C(=O)NCCCCCNC(=O)CC2(CCCC2)CC(=O)N[C@H](Cc2ccc(NC(=O)[C@H](Cc3ccccc3Cl)NC(=O)Cc3ccccc3)cc2)C(=O)N1C` [Compound 289] the figure was 1000 to 10000 nM. As for `C[C@@H]1NC(=O)[C@@H](Cc2ccc(NC(=O)[C@H](Cc3ccccc3Cl)NC(=O)Cc3ccccc3)cc2)NC(=O)CC2(CCCC2)CC(=O)NCCCCCNC1=O` [Compound 290], the IC50 fell in the range of 100 to 1000 nM. In the case of `C[C@H]1C(=O)NCCCCCNC(=O)CC2(CCCC2)CC(=O)N[C@H](Cc2ccc(NC(=O)[C@H](Cc3ccccc3Cl)NC(=O)Cc3ccccc3)cc2)C(=O)N1C` [Compound 291], the IC50 lay within 1000 to 10000 nM. Then `O=C1CNC(=O)[C@@H](Cc2ccc(NC(=O)[C@H](CC3CCCCC3)NC(=O)Cc3ccc(O)cc3)cc2)NC(=O)CC2(CCCC2)CC(=O)NCCCCCN1` [Compound 294], with < 100 nM; and `O=C1CNC(=O)[C@@H](Cc2ccc(NC(=O)[C@H](Cc3ccccc3Cl)NC(=O)Cc3ccc(F)cc3F)cc2)NC(=O)CC2(CCCC2)CC(=O)NCCCCCN1` [Compound 296], with < 100 nM. As to `O=C1CNC(=O)[C@@H](Cc2ccc(NC(=O)[C@H](Cc3ccccc3Cl)NC(=O)c3ccc(F)c(F)c3)cc2)NC(=O)CC2(CCCC2)CC(=O)NCCCCCN1` [Compound 297], the IC50 is < 100 nM. On to `O=C1CNC(=O)[C@@H](Cc2ccc(NC(=O)[C@H](Cc3ccccc3Cl)NC(=O)Cc3ccc(F)c(F)c3)cc2)NC(=O)CC2(CCCC2)CC(=O)NCCCCCN1` [Compound 298], for which the IC50 is < 100 nM.

In general, IC50 refers to the concentration at which inhibition is half-maximal.
